Assay results from PMC5218480 (PLoS ONE, 2017).

System: MV-4-11 cells
Assay: Gene expression microarray analysis (Affymetrix PrimeView) and GSEA
Format: cell-based, human
Design: RFU PODN (11730768_x_at) / Fold change /veh PODN (11730768_x_at) / RFU LINC00158 (11744669_a_at) / Fold change /veh LINC00158 (11744669_a_at) / RFU DUSP10 (11751237_a_at) / Fold change /veh DUSP10 (11751237_a_at) / RFU ID3 (11757404_x_at) / Fold change /veh ID3 (11757404_x_at) / RFU PLEKHG5 (11737974_s_at) / Fold change /veh PLEKHG5 (11737974_s_at) / RFU LRRC4B (11730491_at) / Fold change /veh LRRC4B (11730491_at) / RFU GIMAP4 (11747438_a_at) / Fold change /veh GIMAP4 (11747438_a_at) / RFU KRT8 (11758183_x_at) / Fold change /veh KRT8 (11758183_x_at) / RFU CNN1 (11734310_a_at) / Fold change /veh CNN1 (11734310_a_at) / RFU VPS37D (11726825_at) / Fold change /veh VPS37D (11726825_at) / RFU C10orf10 (11716522_x_at) / Fold change /veh C10orf10 (11716522_x_at) / RFU KIR2DL2 /// KIR2DL4 /// KIR2DL5A /// KIR2DL5B /// KIR2DS1 /// KIR2DS2 /// KIR2DS3 /// KIR2DS4 /// KIR3DL3 /// KIR3DL3 /// KIR3DS1 (11738374_at) / Fold change /veh KIR2DL2 /// KIR2DL4 /// KIR2DL5A /// KIR2DL5B /// KIR2DS1 /// KIR2DS2 /// KIR2DS3 /// KIR2DS4 /// KIR3DL3 /// KIR3DL3 /// KIR3DS1 (11738374_at) / RFU C1QL1 (11718748_at) / Fold change /veh C1QL1 (11718748_at) / RFU TMPRSS4 (11747572_a_at) / Fold change /veh TMPRSS4 (11747572_a_at) / RFU HAMP (11756126_x_at) / Fold change /veh HAMP (11756126_x_at) / RFU RNFT2 (11725882_a_at) / Fold change /veh RNFT2 (11725882_a_at) / RFU NR4A2 (11747474_a_at) / Fold change /veh NR4A2 (11747474_a_at) / RFU ABCC12 (11746883_a_at) / Fold change /veh ABCC12 (11746883_a_at) / RFU TMEM136 (11760407_x_at) / Fold change /veh TMEM136 (11760407_x_at) / RFU CLDN22 /// WWC2 (11732394_at) / Fold change /veh CLDN22 /// WWC2 (11732394_at) / RFU HLA-DPB1 (11760878_x_at) / Fold change /veh HLA-DPB1 (11760878_x_at) / RFU SPINT1 (11716480_a_at) / Fold change /veh SPINT1 (11716480_a_at) / RFU GAP43 (11754022_s_at) / Fold change /veh GAP43 (11754022_s_at) / RFU A4GNT (11735810_at) / Fold change /veh A4GNT (11735810_at) / RFU PRB3 (11715151_x_at) / Fold change /veh PRB3 (11715151_x_at) / RFU TUBB4B (11761932_at) / Fold change /veh TUBB4B (11761932_at) / RFU CAPN14 (11732068_a_at) / Fold change /veh CAPN14 (11732068_a_at) / RFU TMCC2 (11721928_a_at) / Fold change /veh TMCC2 (11721928_a_at) / RFU IRGQ (11745062_a_at) / Fold change /veh IRGQ (11745062_a_at) / RFU FAM174B (11720279_a_at) / Fold change /veh FAM174B (11720279_a_at) / RFU TMPRSS4 (11748680_a_at) / Fold change /veh TMPRSS4 (11748680_a_at) / RFU FAM212B (11763350_a_at) / Fold change /veh FAM212B (11763350_a_at) / RFU PLEKHG5 (11743358_a_at) / Fold change /veh PLEKHG5 (11743358_a_at) / RFU ZSCAN30 (11745921_a_at) / Fold change /veh ZSCAN30 (11745921_a_at) / RFU CMKLR1 (11741424_a_at) / Fold change /veh CMKLR1 (11741424_a_at) / RFU LOC101060620 /// MAPK8IP1 (11723275_at) / Fold change /veh LOC101060620 /// MAPK8IP1 (11723275_at) / RFU SPTSSB (11747773_x_at) / Fold change /veh SPTSSB (11747773_x_at) / RFU PRSS12 (11739890_at) / Fold change /veh PRSS12 (11739890_at) / RFU BIN1 (11741810_x_at) / Fold change /veh BIN1 (11741810_x_at) / RFU WNT11 (11732464_a_at) / Fold change /veh WNT11 (11732464_a_at) / RFU C10orf10 (11716521_a_at) / Fold change /veh C10orf10 (11716521_a_at) / RFU C5orf56 (11738089_at) / Fold change /veh C5orf56 (11738089_at) / RFU CYB561 (11721691_x_at) / Fold change /veh CYB561 (11721691_x_at) / RFU ANKRD19P (11752326_a_at) / Fold change /veh ANKRD19P (11752326_a_at) / RFU OR2T12 /// OR2T33 /// OR2T8 (11738714_s_at) / Fold change /veh OR2T12 /// OR2T33 /// OR2T8 (11738714_s_at) / RFU VCAN (11748164_a_at) / Fold change /veh VCAN (11748164_a_at) / RFU JSRP1 (11732532_at) / Fold change /veh JSRP1 (11732532_at) / RFU KRTAP10-11 (11738290_x_at) / Fold change /veh KRTAP10-11 (11738290_x_at) / RFU MYO3A (11730013_a_at) / Fold change /veh MYO3A (11730013_a_at) / RFU EBF3 (11725865_a_at) / Fold change /veh EBF3 (11725865_a_at) / RFU CAMK2N1 (11719241_x_at) / Fold change /veh CAMK2N1 (11719241_x_at) / RFU C5orf56 (11738088_a_at) / Fold change /veh C5orf56 (11738088_a_at) / RFU OLFML3 (11715873_a_at) / Fold change /veh OLFML3 (11715873_a_at) / RFU LOC100653217 /// NTM (11731650_a_at) / Fold change /veh LOC100653217 /// NTM (11731650_a_at) / RFU MAPK11 (11762145_a_at) / Fold change /veh MAPK11 (11762145_a_at) / RFU FIZ1 (11724087_x_at) / Fold change /veh FIZ1 (11724087_x_at) / RFU OASL (11726364_x_at) / Fold change /veh OASL (11726364_x_at) / RFU SOX15 (11748057_x_at) / Fold change /veh SOX15 (11748057_x_at) / RFU CD79A (11719716_a_at) / Fold change /veh CD79A (11719716_a_at) / RFU HIST1H1D (11736915_at) / Fold change /veh HIST1H1D (11736915_at) / RFU CASKIN2 (11723855_a_at) / Fold change /veh CASKIN2 (11723855_a_at) / RFU LOC730098 (11760151_x_at) / Fold change /veh LOC730098 (11760151_x_at) / RFU OR4N2 (11742367_at) / Fold change /veh OR4N2 (11742367_at) / RFU PRRT2 (11749266_a_at) / Fold change /veh PRRT2 (11749266_a_at) / RFU SNX32 (11753110_a_at) / Fold change /veh SNX32 (11753110_a_at) / RFU CDHR5 (11726645_a_at) / Fold change /veh CDHR5 (11726645_a_at) / RFU RCAN1 (11760418_a_at) / Fold change /veh RCAN1 (11760418_a_at) / RFU FAM167A (11723789_a_at) / Fold change /veh FAM167A (11723789_a_at) / RFU FAM26E (11764081_at) / Fold change /veh FAM26E (11764081_at) / RFU ISYNA1 (11749810_s_at) / Fold change /veh ISYNA1 (11749810_s_at) / RFU ACY1 (11761880_at) / Fold change /veh ACY1 (11761880_at) / RFU 11764098_at / Fold change /veh 11764098_at / RFU SAMD14 (11745864_x_at) / Fold change /veh SAMD14 (11745864_x_at) / RFU NPB (11741838_a_at) / Fold change /veh NPB (11741838_a_at) / RFU TMPRSS6 (11731388_a_at) / Fold change /veh TMPRSS6 (11731388_a_at) / RFU KRTAP10-2 (11738614_at) / Fold change /veh KRTAP10-2 (11738614_at) / RFU ARHGAP8 /// PRR5-ARHGAP8 (11727945_x_at) / Fold change /veh ARHGAP8 /// PRR5-ARHGAP8 (11727945_x_at) / RFU KRTAP5-7 /// NADSYN1 (11734609_at) / Fold change /veh KRTAP5-7 /// NADSYN1 (11734609_at) / RFU RASL12 (11751679_a_at) / Fold change /veh RASL12 (11751679_a_at) / RFU CDKN2B (11736163_a_at) / Fold change /veh CDKN2B (11736163_a_at) / RFU PRF1 (11729649_at) / Fold change /veh PRF1 (11729649_at) / RFU, ZNF638 /// ZNF638-IT1 / Fold change vs veh, ZNF638 /// ZNF638-IT1 / RFU, PANK3 / Fold change vs veh, PANK3 / RFU, SH3YL1 / Fold change vs veh, SH3YL1 / RFU, ZEB2 / Fold change vs veh, ZEB2 / RFU, NRIP1 / Fold change vs veh, NRIP1 / RFU, PTTG1IP / Fold change vs veh, PTTG1IP / RFU, CAPN2 / Fold change vs veh, CAPN2 / RFU, MED14 / Fold change vs veh, MED14 / RFU, SNORA58 / Fold change vs veh, SNORA58 / RFU, C1orf63 / Fold change vs veh, C1orf63 / RFU, LRRFIP1 / Fold change vs veh, LRRFIP1 / RFU, NDUFAF7 / Fold change vs veh, NDUFAF7 / RFU, SLC12A2 / Fold change vs veh, SLC12A2 / RFU, IBTK / Fold change vs veh, IBTK / RFU, ESF1 / Fold change vs veh, ESF1 / Fold change vs veh, TMEM50B / RFU, TAOK1 / Fold change vs veh, TAOK1 / RFU, ACBD3 / Fold change vs veh, ACBD3 / RFU, TMA16 / Fold change vs veh, TMA16 / RFU, RWDD3 / Fold change vs veh, RWDD3 / RFU, BCAT1 / Fold change vs veh, BCAT1 / RFU, EDEM3 / Fold change vs veh, EDEM3 / RFU, TMEM33 / Fold change vs veh, TMEM33 / RFU, WDR75 / Fold change vs veh, WDR75 / RFU, AHCTF1 / Fold change vs veh, AHCTF1 / RFU, TFRC / Fold change vs veh, TFRC / RFU, ZDHHC17 / Fold change vs veh, ZDHHC17 / RFU, NOM1 / Fold change vs veh, NOM1 / RFU, ARL8B / Fold change vs veh, ARL8B / RFU, ZBTB11 / Fold change vs veh, ZBTB11 / RFU, TAMM41 / Fold change vs veh, TAMM41 / RFU, KIAA1704 /// LOC100996395 / Fold change vs veh, KIAA1704 /// LOC100996395 / RFU, ING1 / Fold change vs veh, ING1 / RFU, TRMT61B / Fold change vs veh, TRMT61B / RFU, FUBP3 / Fold change vs veh, FUBP3 / RFU, TP53 / Fold change vs veh, TP53 / RFU, TNKS2 / Fold change vs veh, TNKS2 / RFU, ZFP14 / Fold change vs veh, ZFP14 / RFU, ACTR2 / Fold change vs veh, ACTR2 / RFU, PPP3R1 / Fold change vs veh, PPP3R1 / RFU, PIK3R1 / Fold change vs veh, PIK3R1 / RFU, HNRNPA1 / Fold change vs veh, HNRNPA1 / RFU, RNF170 / Fold change vs veh, RNF170 / RFU, ZNF28 / Fold change vs veh, ZNF28 / RFU, RNGTT / Fold change vs veh, RNGTT / RFU, OGT / Fold change vs veh, OGT / RFU, BRD1 / Fold change vs veh, BRD1 / RFU, MARS / Fold change vs veh, MARS / RFU, ZNF655 / Fold change vs veh, ZNF655 / RFU, FAHD1 / Fold change vs veh, FAHD1 / RFU, BDP1 / Fold change vs veh, BDP1 / RFU, LRRCC1 / Fold change vs veh, LRRCC1 / RFU, ARID1A / Fold change vs veh, ARID1A / RFU, ZNF146 / Fold change vs veh, ZNF146 / RFU, ZNF330 / Fold change vs veh, ZNF330 / RFU, GPN3 / Fold change vs veh, GPN3 / RFU, C9orf123 / Fold change vs veh, C9orf123 / RFU, N4BP2L2 / Fold change vs veh, N4BP2L2 / RFU, ARFIP1 / Fold change vs veh, ARFIP1 / RFU, FAM179B / Fold change vs veh, FAM179B / RFU, BCL10 / Fold change vs veh, BCL10 / RFU, UHRF1BP1L / Fold change vs veh, UHRF1BP1L / RFU, BET1 / Fold change vs veh, BET1 / RFU, CNOT2 / Fold change vs veh, CNOT2 / RFU, ZNF268 / Fold change vs veh, ZNF268 / Fold change vs veh, ZNF507 / RFU, DGCR2 / Fold change vs veh, DGCR2 / RFU, WDSUB1 / Fold change vs veh, WDSUB1 / Fold change vs veh, HSP90B1 /// MIR3652 / RFU, ADSS / Fold change vs veh, ADSS / RFU, GK / Fold change vs veh, GK / RFU, ZNF148 / Fold change vs veh, ZNF148 / RFU, TAF9 / Fold change vs veh, TAF9 / RFU, SLC1A5 / Fold change vs veh, SLC1A5 / RFU, SLMO2 / Fold change vs veh, SLMO2 / RFU, ABCC4 / Fold change vs veh, ABCC4 / RFU, LOC101060439 /// RAP1B / Fold change vs veh, LOC101060439 /// RAP1B / RFU, RFX7 / Fold change vs veh, RFX7 / RFU, GTPBP10 / Fold change vs veh, GTPBP10 / RFU, CNEP1R1 / Fold change vs veh, CNEP1R1 / RFU, BIVM-ERCC5 /// ERCC5 / Fold change vs veh, BIVM-ERCC5 /// ERCC5 / RFU, ILF3 / Fold change vs veh, ILF3 / RFU 11762660_at / Fold change /veh 11762660_at / RFU VCAN (11757783_s_at) / Fold change /veh VCAN (11757783_s_at) / RFU DDX43 (11728927_at) / Fold change /veh DDX43 (11728927_at) / RFU KRT8 (11758188_x_at) / Fold change /veh KRT8 (11758188_x_at) / RFU NKD1 (11759106_at) / Fold change /veh NKD1 (11759106_at) / RFU SRD5A1 (11742802_a_at) / Fold change /veh SRD5A1 (11742802_a_at) / RFU TPSAB1 /// TPSB2 (11721975_s_at) / Fold change /veh TPSAB1 /// TPSB2 (11721975_s_at) / RFU GSTM3 (11746129_a_at) / Fold change /veh GSTM3 (11746129_a_at) / RFU IL23R (11737362_x_at) / Fold change /veh IL23R (11737362_x_at) / RFU TMEM51 (11727254_a_at) / Fold change /veh TMEM51 (11727254_a_at) / RFU PIWIL2 (11732686_x_at) / Fold change /veh PIWIL2 (11732686_x_at) / RFU ORM1 (11744905_x_at) / Fold change /veh ORM1 (11744905_x_at) / RFU CCDC152 (11743942_at) / Fold change /veh CCDC152 (11743942_at) / RFU ECM1 (11717891_a_at) / Fold change /veh ECM1 (11717891_a_at) / RFU IL23R (11748794_a_at) / Fold change /veh IL23R (11748794_a_at) / RFU TNFAIP8L3 (11732012_x_at) / Fold change /veh TNFAIP8L3 (11732012_x_at) / RFU MBOAT4 (11741988_at) / Fold change /veh MBOAT4 (11741988_at) / RFU 11764193_at / Fold change /veh 11764193_at / RFU TMEM53 (11763286_at) / Fold change /veh TMEM53 (11763286_at) / RFU MAGEB2 (11727129_at) / Fold change /veh MAGEB2 (11727129_at) / RFU TMEM200A (11744735_a_at) / Fold change /veh TMEM200A (11744735_a_at) / RFU CCDC152 (11751479_a_at) / Fold change /veh CCDC152 (11751479_a_at) / RFU FAM211A (11726209_a_at) / Fold change /veh FAM211A (11726209_a_at) / RFU RGS16 (11746705_a_at) / Fold change /veh RGS16 (11746705_a_at) / RFU VCAN (11755009_s_at) / Fold change /veh VCAN (11755009_s_at) / RFU RHOB (11743442_s_at) / Fold change /veh RHOB (11743442_s_at) / RFU RGS16 (11720943_a_at) / Fold change /veh RGS16 (11720943_a_at) / RFU RGS16 (11720944_at) / Fold change /veh RGS16 (11720944_at) / RFU, VPS4B / Fold change vs veh, VPS4B / RFU, CREB1 / Fold change vs veh, CREB1 / RFU, DNAJC13 / Fold change vs veh, DNAJC13 / RFU, GNAQ / Fold change vs veh, GNAQ / RFU, CDK5R1 / Fold change vs veh, CDK5R1 / RFU, ZRANB3 / Fold change vs veh, ZRANB3 / RFU, CUL4A / Fold change vs veh, CUL4A / RFU, CCNY / Fold change vs veh, CCNY / RFU, UFL1 / Fold change vs veh, UFL1 / RFU, COG3 / Fold change vs veh, COG3 / RFU, DIAPH2 / Fold change vs veh, DIAPH2 / RFU, SKA2 / Fold change vs veh, SKA2 / RFU, AFF3 / Fold change vs veh, AFF3 / RFU, LMF1 / Fold change vs veh, LMF1 / RFU, IPO11 / Fold change vs veh, IPO11 / RFU, DFFB / Fold change vs veh, DFFB / RFU, FOXP1 / Fold change vs veh, FOXP1 / RFU, CARD8 / Fold change vs veh, CARD8 / RFU, STRN3 / Fold change vs veh, STRN3 / RFU, ADK / Fold change vs veh, ADK / RFU, RASSF2 / Fold change vs veh, RASSF2 / RFU, WIPF1 / Fold change vs veh, WIPF1 / RFU, LARP1B / Fold change vs veh, LARP1B / RFU, RASA1 / Fold change vs veh, RASA1 / RFU, RB1 / Fold change vs veh, RB1 / RFU, PPFIA1 / Fold change vs veh, PPFIA1 / RFU, MAT2A / Fold change vs veh, MAT2A / RFU, CCT5 / Fold change vs veh, CCT5 / RFU, WDR92 / Fold change vs veh, WDR92 / RFU, CUX1 / Fold change vs veh, CUX1 / RFU, TTC7A / Fold change vs veh, TTC7A / RFU, TMEM135 / Fold change vs veh, TMEM135 / RFU, DEPTOR / Fold change vs veh, DEPTOR / RFU, CPM / Fold change vs veh, CPM / RFU, DNAJB6 / Fold change vs veh, DNAJB6 / RFU, CACNA2D3 / Fold change vs veh, CACNA2D3 / RFU, DTX4 / Fold change vs veh, DTX4 / RFU, TFCP2 / Fold change vs veh, TFCP2 / RFU, GMCL1 /// GMCL1P1 / Fold change vs veh, GMCL1 /// GMCL1P1 / RFU, AEBP2 / Fold change vs veh, AEBP2 / RFU, SNHG1 /// SNORD22 /// SNORD25 /// SNORD26 /// SNORD27 /// SNORD28 /// SNORD29 /// SNORD31 / Fold change vs veh, SNHG1 /// SNORD22 /// SNORD25 /// SNORD26 /// SNORD27 /// SNORD28 /// SNORD29 /// SNORD31 / Fold change (Aza/veh), C12orf56 (ProbeSet 11735607_a_at) / Fold change (ACY-1035/veh), C12orf56 (ProbeSet 11735607_a_at) / Fold change (Aza/veh), FGFR1OP (ProbeSet 11751329_s_at) / Fold change (ACY-1035/veh), FGFR1OP (ProbeSet 11751329_s_at) / Fold change (Aza/veh), VPS36 (ProbeSet 11739960_a_at) / Fold change (ACY-1035/veh), VPS36 (ProbeSet 11739960_a_at) / RFU SYPL1 (11715823_x_at) / Fold change /veh SYPL1 (11715823_x_at) / RFU IGFBP7 (11715501_s_at) / Fold change /veh IGFBP7 (11715501_s_at) / RFU REEP3 (11722064_at) / Fold change /veh REEP3 (11722064_at) / RFU IGLL1 (11728026_x_at) / Fold change /veh IGLL1 (11728026_x_at): dose or concentration left out as unconfirmed
Settings: ProbeSet 11721559_s_at; LIST B

Q: Which “RFU, ZNF638 /// ZNF638-IT1” value does the source give for Nc1ncn([C@@H]2O[C@H](CO)[C@@H](O)[C@H]2O)c(=O)n1 [azacitidine] here?
A: 347.20 RFU
